Where two headings read alike, the source gives them in different places.
Legend:
MDA-MB-231 cells = test: Cell viability assay (PrestoBlue) in MDA-MB-231, with or without TNF; format: cell-based, human; conditions: 48 h treatment
Method: MDA-MB-231 cells (human breast adenocarcinoma cell line) were grown in standard conditions (37 °C, 5% CO2) in RPMI medium supplemented with 10% serum, 1 mg·mL^−1 penicillin, 100 μg·mL^−1 streptomycin and 2 mM l-glutamine. Cell viability was evaluated by using PrestoBlue^TM Cell Viability Reagent (Thermo Fisher Scientific, Rodano, Italy). Resazurin, the active nontoxic and non-fluorescent ingredient, is continuously converted in resorufin, a red fluorescent compound, in viable cells. Cells were seeded on black-wall, clear bottom 96-well microplates at a density of 50,000 cells/well. After 24 h, cells were treated with the FC2 derivatives from 1.5 μM to 100 μM (vehicle, DMSO) in the absence or presence of TNF at the concentration of 50 ng/mL. After 48 h, the fluorescence was determined using a fluorescence plate reader (Tristar2 S, Berthold Technologies, Bad Wildbad, Germany) equipped with 560 nm excitation and 585 nm emission filters. At least five replicates were performed for each condition. The EC50, was calculated plotting the percentage of cell survival against the compound concentration (A) and fitting the data with: % survival=Tmax−TminA/A+EC50+Tmin where Tmax and Tmin are the maximum and minimum effect induced by the compounds. Analysis was performed with IgorPro 8.04 software (Lake Oswego, OR, USA).

cIAP2-BIR1 = cIAP2-BIR1 (Homo sapiens, UniProt Q13489); test: Trp fluorescence binding assay on cIAP2-BIR1
cIAP2-BIR1, sequence (Q13489 26-99 limits assumed): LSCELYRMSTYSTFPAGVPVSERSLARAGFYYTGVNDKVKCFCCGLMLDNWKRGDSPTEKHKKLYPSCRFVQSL
Method: (§1) The binding of FC2 derivatives to the BIR1 domains was assessed by in vitro fluorimetric assays.
(§2) The fluorescence intensity emitted by XIAP-BIR1 Trp73 or cIAP2-BIR1 Trp76 was measured by varying the concentration of the different ligands. The tests were performed with a spectral fluorimeter (Varian Cary Eclipse Fluorescence Spectrophotometer, Agilent Technologies), recording the fluorescence emission spectra between 300 and 400 nm (excitation 280 nm). XIAP-/ cIAP2-BIR1 protein samples were concentrated at 5 μM.
(§3) All the analyses were performed with GraFit version 5 (Erithacus Software Ltd., Horley, UK).

XIAP-BIR1 = XIAP-BIR1 (Homo sapiens, UniProt P98170); test: Trp fluorescence binding assay on XIAP-BIR1
XIAP-BIR1, sequence (P98170 10-99 limits assumed): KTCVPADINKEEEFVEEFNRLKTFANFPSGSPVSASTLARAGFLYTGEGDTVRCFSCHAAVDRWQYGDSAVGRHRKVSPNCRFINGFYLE
Method: as §1, §2, §3

[1] = Homo sapiens, MDA-MB-231, 48 h, MDA-MB-231, in combination with 50 ng/mL TNF, read-out: EC50 (+TNF)
[2] = Homo sapiens, MDA-MB-231, 48 h, MDA-MB-231, single agent, read-out: EC50
[3] = Homo sapiens, MDA-MB-231, in combination with 50 ng/mL TNF, read-out: EC50 (+TNF)
[4] = Homo sapiens, MDA-MB-231, single agent, read-out: EC50
[5] = read-out: Kd (cIAP2-BIR1), Trp fluorescence titration, 23 °C, pH 8.0
[6] = read-out: Kd (XIAP-BIR1), Trp fluorescence titration, 23 °C, pH 8.0

Row | Compound | EC50 (MDA-MB-231 cells; [1]) | EC50 (MDA-MB-231 cells; [2]) | Kd (cIAP2-BIR1) | Kd (XIAP-BIR1) | EC50 (MDA-MB-231 cells; MDA-MB-231, single agent) | EC50 (MDA-MB-231 cells; [3]) | EC50 (MDA-MB-231 cells; [4]) | Kd (cIAP2-BIR1; [5]) | Kd (XIAP-BIR1; [6]) | EC50 (MDA-MB-231 cells; MDA-MB-231, single agent, read-out: EC50)
1 | O=C1CCCC2=C1C(c1ccc(Cl)cc1)Nc1ccc(C(=O)c3ccccc3)cc1N2 (centres unmarked) [4i] | 22.2 ± 6.67 µM | 25.9 ± 7.03 µM | > 50 µM | > 50 µM |  |  |  |  |  | 
2 | COc1cccc(C2Nc3ccc(C(=O)c4ccccc4)cc3NC3=C2C(=O)CCC3)c1O (centres unmarked) [4t] |  |  | > 50 µM | > 50 µM | without activity |  |  |  |  | 
3 | O=C1CCCC2=C1C(c1ccc(C(F)(F)F)cc1)Nc1ccc(C(=O)c3ccccc3)cc1N2 (centres unmarked) [4h] | 48.8 ± 5.72 µM | 22.3 ± 8.67 µM | 43.4 ± 13.9 µM | 14.9 ± 3.8 µM |  |  |  |  |  | 
4 | COc1ccc(C2Nc3ccc(C(=O)c4ccccc4)cc3NC3=C2C(=O)CCC3)cc1OC (centres unmarked) [4o] | 15.4 ± 6.86 µM | 13.5 ± 4.67 µM | 12 ± 2.4 µM | 7.5 ± 2.9 µM |  |  |  |  |  | 
5 | O=C1CCCC2=C1C(c1cccs1)Nc1ccc(C(=O)c3ccccc3)cc1N2 (centres unmarked) [4b, 7-benzoyl-11-(thiophen-2-yl)-2,3,4,5,10,11-hexahydro-1H-dibenzo[b,e][1,4]diazepin-1-one] | 9.2 ± 5.75 µM | 21.9 ± 8.17 µM | 46.3 ± 24.8 µM | 30 ± 7.47 µM |  |  |  |  |  | 
6 | COc1ccc(C2Nc3ccc(C(=O)c4ccccc4)cc3NC3=C2C(=O)CCC3)cc1 (centres unmarked) [4g] | 36.3 ± 10.4 µM | 67.2 ± 7.6 µM |  | 18 ± 5.4 µM |  |  |  |  |  | 
7 | O=C1CCCC2=C1C(c1c[nH]c3ccccc13)Nc1ccc(C(=O)c3ccccc3)cc1N2 (centres unmarked) [FC2, 7-benzoyl-11-(1H-indol-3-yl)-2,3,4,5,10,11-hexahydro-1H-dibenzo[b,e][1,4]diazepin-1-one] |  |  |  |  |  | 9.08 ± 1.85 µM | 11.4 ± 2.08 µM |  |  | 
8 | COc1cc(C2Nc3ccc(C(=O)c4ccccc4)cc3NC3=C2C(=O)CCC3)ccc1O (centres unmarked) [4r] |  |  | 46 ± 8.33 µM | 33.1 ± 1.4 µM |  | 12.8 ± 1.9 µM | 7.49 ± 1.65 µM |  |  | 
9 | Cc1ccc(C2Nc3ccc(C(=O)c4ccccc4)cc3NC3=C2C(=O)CCC3)cc1 (centres unmarked) [4e, 7-benzoyl-11-(p-tolyl)-2,3,4,5,10,11-hexahydro-1H-dibenzo[b,e][1,4]diazepin-1-one] | 47.9 ± 9.7 µM | 38.9 ± 7.55 µM | 27.6 ± 7.3 µM | > 50 µM |  |  |  |  |  | 

The next lines start with the values.

Row | EC50 (MDA-MB-231 cells; [1]) | EC50 (MDA-MB-231 cells; [2]) | Kd (cIAP2-BIR1) | Kd (XIAP-BIR1) | EC50 (MDA-MB-231 cells; MDA-MB-231, single agent) | EC50 (MDA-MB-231 cells; [3]) | EC50 (MDA-MB-231 cells; [4]) | Kd (cIAP2-BIR1; [5]) | Kd (XIAP-BIR1; [6]) | EC50 (MDA-MB-231 cells; MDA-MB-231, single agent, read-out: EC50) | Compound
10 |  |  | > 50 µM | > 50 µM |  | 14.6 ± 1.74 µM | 15.2 ± 3.63 µM |  |  |  | COc1ccc(C2Nc3ccc(C(=O)c4ccccc4)cc3NC3=C2C(=O)CCC3)cc1O (centres unmarked) [4s]
11 |  |  | 20.5 ± 4 µM |  |  | 3.82 ± 1.41 µM | 5.54 ± 1.03 µM |  |  |  | O=C1CCCC2=C1C(c1cccc([N+](=O)[O-])c1)Nc1ccc(C(=O)c3ccccc3)cc1N2 (centres unmarked) [4m]
12 |  |  | 38 ± 2.78 µM | 46.4 ± 5.31 µM |  | 26.8 ± 12.5 µM | 31.4 ± 11.4 µM |  |  |  | COc1cc(C2Nc3ccc(C(=O)c4ccccc4)cc3NC3=C2C(=O)CCC3)cc([N+](=O)[O-])c1O (centres unmarked) [4v]
13 | 16.9 ± 7.14 µM | 42.8 ± 10.1 µM | 1.3 ± 0.7 µM | 6.8 ± 1.3 µM |  |  |  |  |  |  | CC1(C)CC(=O)C2=C(C1)Nc1cc(C(=O)c3ccccc3)ccc1NC2c1c[nH]c2ccccc12 (centres unmarked) [4a, 7-benzoyl-11-(1H-indol-3-yl)-3,3-dimethyl-2,3,4,5,10,11-hexahydro-1H-dibenzo[b,e][1,4]diazepin-1-one]
14 | 59.7 ± 14.8 µM | 48.2 ± 15.1 µM |  |  |  |  |  | 27.6 ± 3.16 µM | 7.26 ± 0.98 µM |  | O=C1CCCC2=C1C(c1ccc(O)cc1)Nc1ccc(C(=O)c3ccccc3)cc1N2 (centres unmarked) [4j]
15 | 9.5 ± 4.73 µM | 6.92 ± 2.43 µM | 26.9 ± 4.3 µM | 15.9 ± 5.2 µM |  |  |  |  |  |  | O=C1CCCC2=C1C(c1ccc(O)c(O)c1)Nc1ccc(C(=O)c3ccccc3)cc1N2 (centres unmarked) [4p]
16 | 45.3 ± 3.75 µM | 65 µM | > 50 µM | > 50 µM |  |  |  |  |  | 65.1 ± 2.43 µM | Cc1ccc(C2Nc3ccc(C(=O)c4ccccc4)cc3NC3=C2C(=O)CCC3)o1 (centres unmarked) [4c, 7-benzoyl-11-(5-methylfuran-2-yl)-2,3,4,5,10,11-hexahydro-1H-dibenzo[b,e][1,4]diazepin-1-one]
17 | 13 ± 4.15 µM | 10.3 ± 4.63 µM |  |  |  |  |  | > 50 µM | > 50 µM |  | COc1cccc(C2Nc3ccc(C(=O)c4ccccc4)cc3NC3=C2C(=O)CCC3)c1 (centres unmarked) [4k]
18 |  |  | 26.5 ± 1.07 µM | 38.1 ± 1.68 µM | loss of activity |  |  |  |  |  | Nc1cccc(C2Nc3ccc(C(=O)c4ccccc4)cc3NC3=C2C(=O)CCC3)c1 (centres unmarked) [4n]
19 | 16.1 ± 3.7 µM | 18.6 ± 2.56 µM | 38.6 ± 3.56 µM | 22 ± 1.18 µM |  |  |  |  |  |  | O=C1CCCC2=C1C(c1cccc(O)c1)Nc1ccc(C(=O)c3ccccc3)cc1N2 (centres unmarked) [4l]
20 |  |  | 16.4 ± 2.9 µM | 41.8 ± 11.7 µM |  | 14 ± 2.4 µM | 14.7 ± 4.98 µM |  |  |  | O=C1CCCC2=C1C(c1ccc3c(c1)OC(F)(F)O3)Nc1ccc(C(=O)c3ccccc3)cc1N2 (centres unmarked) [4q]
21 | 69.2 ± 8.1 µM | 19.6 ± 4.23 µM | 21.9 ± 6.2 µM | 4.4 ± 2.2 µM |  |  |  |  |  |  | O=C1CCCC2=C1C(c1ccccc1)Nc1ccc(C(=O)c3ccccc3)cc1N2 (centres unmarked) [4d, 7-benzoyl-11-phenyl-2,3,4,5,10,11-hexahydro-1H-dibenzo[b,e][1,4]diazepin-1-one]
22 |  |  |  |  |  | 9.53 ± 3.61 µM | 17 ± 5.4 µM | > 50 µM | 37.3 ± 4.45 µM |  | O=C1CCCC2=C1C(c1ccc(O)c([N+](=O)[O-])c1)Nc1ccc(C(=O)c3ccccc3)cc1N2 (centres unmarked) [4u]

— paper PMC9823934, “New Class of Benzodiazepinone Derivatives as Pro-Death Agents Targeting BIR Domains in Cancer Cells” (Molecules, 2023)
